Test results published in paper PMC10180054, “Design, Synthesis and Biological Evaluation of Novel Pleuromutilin Derivatives Containing 6-Chloro-1-R-1H-pyrazolo[3,4-d]pyrimidine-4-amino Side Chain” (Molecules, 2023).
Values after ≈ are worked out from the molar mass of the structure shown. Like-named read-outs stand apart in the source and are kept apart here.

Key:
Test in all cases: MIC/MBC by broth dilution (CLSI)
[1] = system: MRSA ATCC 43300; assay type: cell-based, Staphylococcus aureus; conditions: for MIC: MRSA ATCC 43300, broth dilution, 24 h, 37 °C
Method in brief: (§1)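 CLSI broth dilution used twofold compound series from 64 to 0.0625 µg/mL (stocks in water with 2.5% DMSO and 2.5% Tween-80) and a final inoculum of 5 × 10^5 CFU/mL, in triplicate. For MBC, 25 µL from wells without visible growth was plated on MH agar and cultured 24 h at 37 °C.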

[2] = system: S. aureus 144; assay type: cell-based; conditions: Staphylococcus aureus; S. aureus 144 (clinical strain)
Method in brief: as §1

[3] = system: S. aureus ATCC 29213; assay type: cell-based; conditions: Staphylococcus aureus, ATCC29213
Method in brief: as §1

[4] = system: S. aureus AD3; assay type: cell-based; conditions: Staphylococcus aureus; S. aureus AD3 (clinical strain)
Method in brief: as §1

## C=C[C@]1(C)C[C@@H](OC(=O)CSc2ccc(Nc3nc(Cl)nc4c3cnn4-c3ccc(F)c(F)c3)cc2)[C@]2(C)[C@H](C)CC[C@]3(CCC(=O)[C@H]32)[C@@H](C)[C@@H]1O [Compound 22c, 22-[4-(6-Chloro-1-(3,4-difluorophenyl)-1H-pyrazolo[3,4-d]pyrimidine-4-yl)amino-Phenylsulfanyl]-22-deoxypleuromutilin]
[1]
  MIC: 0.25/0.25 μg/mL
[1]; Staphylococcus aureus, MRSA ATCC 43300, 99.9% of the bacteria killed
  MBC: 0.25 µg/mL (≈ 0.333 µM)
[1]; Staphylococcus aureus, read-out: MIC
  MIC: 0.25 µg/mL (≈ 0.333 µM)
[1]; against MRSA
  MBC/MIC ratio: ≤ 2
[2]
  MBC: 1 µg/mL (≈ 1.33 µM)
  MIC: 0.5 µg/mL (≈ 0.666 µM)
[3]; S. aureus ATCC 29213
  MBC: 0.5 µg/mL (≈ 0.666 µM)
[3]; S. aureus ATCC 29213, broth dilution, 24 h, 37 °C
  MIC: 0.25 µg/mL (≈ 0.333 µM)
[4]
  MBC: 0.25 µg/mL (≈ 0.333 µM)
  MIC: 0.125 µg/mL (≈ 0.167 µM)
